From US12005050B2, “Methods for preventing or treating H. pylori infection” (TENNOR THERAPEUTICS (SUZHOU) LIMITED, priority 2022, dated 2024)

Legend:
[1] = tested on: Helicobacter pylori; settings: In China; cited from earlier work
[2] = human, in vivo
Description: The 40 patients were randomly allocated to four groups at a ratio of 1:1:1:1. […] The detection linear range was as below: • Compound I: Lower Limit Of Quantitation (LLOQ): 1.00 ng/mL; Upper Limit Of Quantitation (ULOQ): 1,000 ng/mL • Rabeprazole sodium: LLOQ: 2.00 ng/mL; […] […] Pharmacokinetics Evaluation Plasma drug concentrations of various groups at different time points were determined, including: arithmetic mean, standard deviation, minimum, median, maximum, geometric mean, coefficient of variation, and coefficient of geometric variation. The pharmacokinetic parameters calculated from the first and last administration were descriptively analyzed according to various trial groups, including: arithmetic mean, standard deviation, minimum value, median, maximum value, geometric mean, coefficient of variation, geometric coefficient of variation, etc. In addition, the accumulation index AUC0-tau, ss(D15)/AUC0-tau (D1) was calculated. […]

Effect of amoxicillin on the major pharmacokinetic parameters of rabeprazole [2]	Compound	Resistance rate of Helicobacter pylori [1]
	Cc1ncc([N+](=O)[O-])n1CCO [metronidazole]	40-70%
no significant effect	COCCCOc1ccnc(C[S+]([O-])c2nc3ccccc3[n-]2)c1C.[Na+] (centres unmarked) [rabeprazole, rabeprazole sodium, reference compound]	
